Like-named read-outs stand apart in the source and are kept apart here.
Tests used:
[1] = biological target: T1, Cdc28·MBP-C1b2 (Saccharomyces cerevisiae, UniProt P00546); experiment: 1-NM-PP1 IC50, Histone H1 phosphorylation; format: biochemical
T1 construct: His6 (C); made in house; host or cells: Sf9 insect cells, baculovirus, co-infected with Cak1-HA3 (Cdc28-His6); bacteria (MBP-Clb2)
Protocol: (§1) Purification of Cdc28-His6, Cdc28-as1-His6, MBP-Clb2: Lysate was prepared from insect cells co-infected with baculoviruses encoding Cdc28-His6 or Cdc28-as1-His6 and Cak1-HA3 (151). Cdc28-His6 and Cdc28-as1-His6 were purified by metal affinity chromatography as described (152), followed by […]. MBP-Clb2 was purified from lysates of bacteria expressing MBP-Clb2 (a gift of R. Deshaies) on an amylose column (NEBL), followed by anion-exchange chromatography (Pharmacia Q Sepharose Fast Flow).
(§2) Phosphate incorporation was determined at each inhibitor concentration by scintillation counting.

[2] = biological target: T2, WT Fyn (Homo sapiens, UniProt P06241); experiment: In vitro kinase inhibition assay; format: biochemical; details: Table 3
T2 construct: GST (N); made in house; host or cells: E. coli DH5a, pGEX-KT

[3] = biological target: T3, Cdc28-as1·MBP-C1b2 (Saccharomyces cerevisiae, UniProt P00546, F88G); experiment: 1-NM-PP1 IC50, Histone H1 phosphorylation; format: biochemical; design: His6 (C); made in house; host or cells: Sf9 insect cells, baculovirus, co-infected with Cak1-HA3 (Cdc28-as1-His6); bacteria (MBP-Clb2)
Protocol: as §1, §2

[4] = biological target: T4, I338G v-Src (Rous sarcoma virus subgroup A, UniProt P00524, DEL77-225/I338G); experiment: biochemical; format: biochemical
T4 construct: catalytic domain of the target kinase, I338G v-Src, which was expressed in bacteria and purified as a glutathione-S-transferase (GST) fusion protein; made in house; host or cells: E. coli DH5a, pGEX-KT

[5] = biological target: T5, WT v-Src (Rous sarcoma virus subgroup A, UniProt P00524, DEL77-225); experiment: biochemical; format: biochemical
T5 construct: glutathione-S-transferase fusion proteins of wild type v-Src catalytic domain, I338G v-Src SH1, and WT Fyn into the pGEX-KT plasmid; GST (N); made in house; host or cells: E. coli DH5a, pGEX-KT

[6] = tested on: cdc28-as1 cells; experiment: Genome-wide transcription, oligonucleotide microarray; format: cell-based, Saccharomyces cerevisiae; details: 500 nM, two hours, asynchronous cells
[7] = tested on: wild-type cells; experiment: Yeast growth; format: cell-based, Saccharomyces cerevisiae; details: 50,000 nM
[8] = tested on: cdc28-as1 cells; experiment: Cell cycle analysis, DNA content and morphology; format: cell-based, Saccharomyces cerevisiae; details: 500 nM, cells arrested in late mitosis with cdc15-2
Protocol: DNA flow cytometry: Approximately 1x10^7 cells for each sample were fixed in 70% ethanol, resuspended in 50 mM Tris-HCl pH 8.0, briefly sonicated, digested with 2mg/ml RNase for 2 hours at 37°C, and resuspended in 0.2 ml protease solution (5 mg/ml pepsin. 0.5% concentrated HC1) and digested for 45 minutes at 37°C. DNA was stained with 1µM Sytox Green (Molecular Probes) in 50 mM Tris-HCl pH 7.5 and 20,000 cells from each sample were scanned with a FACScan FACS machine (Becton-Dickinson).
Thus, it appears possible to titrate the level of Cdc28-as1 activity in vivo, allowing the identification of cell cycle events that are differentially sensitive to decreases in the catalytic activity of Cdc28.
[…], initiation of budding and DNA synthesis were delayed about 30 to 60 minutes, while accumulation of the mitotic cyclin C1b2 was delayed 60 to 90 minutes. Cells went on to arrest with moderate C1b2 levels, highly hyperpolarized buds, and a G2/M DNA content, much like the arrest observed in asynchronous cells. […] Thus, cells treated with low concentrations of the inhibitor are slightly delayed during progression through early stages of the cell cycle, but eventually arrest due to a failure to assemble a mitotic spindle and enter mitosis.

[9] = tested on: cdc28-as1 strain; experiment: Yeast growth; format: cell-based, Saccharomyces cerevisiae; details: Saccharomyces cerevisiae, read-out: inhibitor concentration at which growth was inhibited 50%
[10] = tested on: wild-type cells; experiment: Genome-wide transcription, oligonucleotide microarray; format: cell-based, Saccharomyces cerevisiae; details: 500 nM, 30 minutes
Protocol: Changes were deemed significant if they were greater than or equal to 2-fold or if the transcript changed present/absent status (as indicated by Affymetrix software) in the following comparisons: for non-specific drug effects: CDC28 + 1 -NM-PP1 vs CDC28: for cdc28-as1 effects: cdc28-as1 vs. CDC28.
Next, the effects of the inhibitor 1-NM-PP1 on cell growth and morphology were analyzed.

[11] = tested on: S. cerevisiae expressing either wild-type Fus3, Fus3-asl, or no Fus3; experiment: Non-selective cytotoxicity control, plating of mating cultures on YPD; details: any of the three strains
[12] = tested on: fus3-as1 strain; experiment: Yeast mating assay for Fus3 function; format: cell-based, Saccharomyces cerevisiae
[13] = tested on: wild-type Fus3 expressing cells; experiment: Yeast mating assay for Fus3 function; format: cell-based, Saccharomyces cerevisiae; details: all concentrations up to 50 µM
[14] = biological target: I338A v-Src (Rous sarcoma virus subgroup A, UniProt P00524, I338A); experiment: biochemical
[15] = biological target: T6, GST-XD4(V323A, I338A) (Rous sarcoma virus subgroup A, UniProt P00524, DEL77-225/I338A/V323A); format: biochemical; details: RR-Src 1 mM, 37°C, pH 8.0
T6 construct: double alanine mutant of the v-Src catalytic domain, (the XD4 fragment) were made as glutathione S-transferase (GST) fusion proteins (GST-XD4); made in house; host or cells: E. coli (DH5a), pGEX-KT
Protocol: (§3) Kinetic constants were determined by analysis of Lineweaver-Burk plots of the rate data (64). […]

[16] = tested on: GST-XD4(V323A, I338A); format: biochemical
Protocol: as §3

[17] = tested on: wild type protein kinase; experiment: In vitro kinase reactions with radiolabeled nucleotide in murine lymphocyte lysates; format: biochemical; details: 100 µM, 37°C, 10 min, autoradiogram
Protocol: For this it is preferably that no wild-type kinase, including ser/thr specific kinase (which carry out the bulk of cellular phosphorylation, as only 0.03% of all phosphoamino acids are tyrosine) (65), substantially accept the synthetic substrate. To establish that [γ-^32P]
These assays were performed in a manner similar to the procedure set forth in Example 2, with the exception of the use of radiolabeled [γ-^32P] […] Proteins were separate by 12.5% SDS-PAGE. The gel was soaked in 10% acetic acid, 10% isopropanol for 1 h. after which it was dried in a gel dryer and exposed to Biomax MS film (Kodak # 111-1681) for 1 h.
The results are shown in Figure 5(b), which is an autoradiogram showing the level of phosphorylation in hypotonically lysed murine lymphocytes with [γ-^32P] […] In principle, the ability to follow one protein kinase's activity in the presence of all other cellular kinase would allow for the identification of the direct kinase targets in a particular cell type by using membrane permeabilization (66) and a cell permeable form of A*TP to introduce [γ-^32P] A*TP into cells (67).

[18] = biological target: T6, GST-XD4(V323A, I338A); format: biochemical; details: nucleotide saturated; read-out: KM for RR-Src
[19] = tested on: GST-XD4; experiment: Kinetics for phosphate donor substrates; format: biochemical; details: RR-Src 1 mM, 37°C, pH 8.0
Protocol: as §3

[20] = biological target: T1, Cdc28·MBP-C1b2; experiment: ATP kinetics, Histone H1 phosphorylation; format: biochemical; details: read-out: ATP Kinetics Km; Eadie-Hofstee
[21] = tested on: GST-XD4; details: read-out: KM for RR-Src; nucleotide saturated
[22] = biological target: T3, Cdc28-as1·MBP-C1b2; details: Eadie-Hofstee
[23] = 1-NM-PP1 IC50 @ 10 µM ATP, 10 µM ATP
[24] = 1-NM-PP1 IC50 @ 1 mM ATP, 1 mM ATP

T3 sequence (P00546 whole entry F88G): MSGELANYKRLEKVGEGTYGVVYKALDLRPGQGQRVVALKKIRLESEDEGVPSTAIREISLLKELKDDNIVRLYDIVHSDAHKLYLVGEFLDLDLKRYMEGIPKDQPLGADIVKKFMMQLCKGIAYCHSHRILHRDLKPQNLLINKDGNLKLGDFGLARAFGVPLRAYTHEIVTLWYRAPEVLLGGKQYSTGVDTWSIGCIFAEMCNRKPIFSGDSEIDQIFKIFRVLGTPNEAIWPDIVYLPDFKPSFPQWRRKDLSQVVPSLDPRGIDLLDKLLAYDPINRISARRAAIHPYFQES
T3 sequence (P24869 whole entry, further chain): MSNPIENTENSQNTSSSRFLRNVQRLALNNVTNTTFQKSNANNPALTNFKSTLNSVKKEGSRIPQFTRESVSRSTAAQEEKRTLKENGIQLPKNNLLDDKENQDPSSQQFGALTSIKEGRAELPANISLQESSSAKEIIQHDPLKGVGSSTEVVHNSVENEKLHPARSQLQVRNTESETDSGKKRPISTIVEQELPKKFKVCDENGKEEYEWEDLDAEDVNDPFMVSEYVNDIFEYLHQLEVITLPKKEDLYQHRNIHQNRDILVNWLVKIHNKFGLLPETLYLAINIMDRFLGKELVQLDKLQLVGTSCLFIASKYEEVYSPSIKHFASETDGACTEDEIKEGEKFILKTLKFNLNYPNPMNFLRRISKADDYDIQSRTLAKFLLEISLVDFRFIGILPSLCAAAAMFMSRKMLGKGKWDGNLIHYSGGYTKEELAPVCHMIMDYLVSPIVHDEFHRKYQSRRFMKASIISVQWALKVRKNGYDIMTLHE
T1 sequence (P00546 whole entry): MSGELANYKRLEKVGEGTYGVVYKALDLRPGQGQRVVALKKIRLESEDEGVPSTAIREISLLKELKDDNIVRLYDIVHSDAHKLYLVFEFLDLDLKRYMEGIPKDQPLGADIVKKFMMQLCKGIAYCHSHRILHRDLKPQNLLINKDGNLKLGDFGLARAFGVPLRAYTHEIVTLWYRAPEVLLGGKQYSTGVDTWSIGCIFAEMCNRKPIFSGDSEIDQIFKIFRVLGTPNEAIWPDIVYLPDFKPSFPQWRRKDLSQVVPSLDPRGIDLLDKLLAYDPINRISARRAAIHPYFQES
T1 sequence (P24869 whole entry partner): as the sequence (P24869 whole entry, further chain) above
T2 sequence (P06241 1-534 isoform P06241-2): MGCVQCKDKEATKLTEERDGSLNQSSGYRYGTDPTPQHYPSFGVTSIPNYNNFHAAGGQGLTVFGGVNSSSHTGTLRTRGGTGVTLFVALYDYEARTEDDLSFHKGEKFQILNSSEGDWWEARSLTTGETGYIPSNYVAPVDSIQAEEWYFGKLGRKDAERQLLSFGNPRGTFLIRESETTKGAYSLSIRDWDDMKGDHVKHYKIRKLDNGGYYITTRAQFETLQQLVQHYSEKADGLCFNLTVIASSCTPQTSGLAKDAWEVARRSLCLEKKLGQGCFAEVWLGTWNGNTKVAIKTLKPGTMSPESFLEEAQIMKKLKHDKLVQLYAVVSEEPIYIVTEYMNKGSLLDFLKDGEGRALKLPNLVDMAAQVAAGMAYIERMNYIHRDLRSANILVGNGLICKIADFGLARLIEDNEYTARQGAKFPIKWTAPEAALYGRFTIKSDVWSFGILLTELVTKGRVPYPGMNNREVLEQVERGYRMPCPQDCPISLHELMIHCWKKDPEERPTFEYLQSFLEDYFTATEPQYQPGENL

CC(C)(C)n1nc(Cc2cccc3ccccc23)c2c(N)ncnc21 [Compound 6h, 4-amino-1-(tert-butyl)-3-(1'-naphthylmethyl)pyrazolo[3,4-d]pyrimidine]
IC50 ([1]; 1 mM ATP, text b306, read-out: IC50): 44000 nM | IC50 [1, 23]: 22000 nM | IC50 [1, 24]: 44000 nM | IC50 [2]: 1100 nM | Cdc28-as1 more sensitive than wild-type Cdc28 ([3]; 1 mM ATP): about 15,000 fold | IC50 [3, 23]: 2 nM | IC50 [3, 24]: 2.9 nM | IC50 ([3]; IC50, 1 mM ATP, text b306): ~3 nM | IC50 [4]: 4.2 nM | IC50 [5]: 28000 nM | genes with […] or greater changes in transcription [6]: 104 genes | increase of doubling times [7]: about 2 fold | time to cyclin destruction and rebudding [8]: < 60 min | IC50 [9]: 50 to 100 nM | genes with transcription changed greater than two-fold [10]: 6 genes

CC(C)(C)n1nc(-c2cccc3ccccc23)c2c(N)ncnc21 [Compound 10]
cfu/mL on YPD plates [11]: No significant decrease in cfu/mL on YPD plates | decrease from equivalent control cells ([12]; 500 nM): 44 fold | diploid colonies ([12]; 500 nM): 1.7x10^3 cfu/ml | amount of diploids formed ([12]; 50 µM): indistinguishable from a fus3Δ strain | diploid colonies [13]: 0.6-1.1 x 10^5 cfu/ml | IC50 [14]: 1 nM

O=P(O)(O)OP(=O)(O)OP(=O)(O)OC[C@H]1O[C@@H](n2cnc3c(NC4CCCC4)ncnc32)[C@H](O)[C@@H]1O [ATP analog 8, N^6(cyclopentyl)ATP]
Km [15]: 15 ± 3 µM | kcat/KM lower than the kcat/KM of the wild-type kinase with ATP ([16]; mutant with analog versus wild type with ATP): 50 fold | radiolabeled phosphoproteins in the cell lysate [17]: no radiolabeled phosphoproteins | Km [18]: 2100 ± 900 µM

Nc1ncnc2c1ncn2[C@@H]1O[C@H](COP(=O)(O)OP(=O)(O)OP(=O)(O)O)[C@@H](O)[C@H]1O [ATP, adenosine triphosphate]
Km [19]: 12 ± 3 µM | Km [20]: 35 µM | Km [15]: 150 ± 20 µM | kcat [15]: 0.013 ± 0.0033 s⁻¹ | KM of the mutant higher than the KM of GST-XD4 ([16]; mutant versus GST-XD4): more than 10 fold | Km [21]: 2600 ± 900 µM | ATP Kinetics kcat [22]: 0.355 s⁻¹ | Km ([22]; read-out: ATP Kinetics Km): 322 µM

Source: patent EP1321467A2, “High affinity inhibitors for target validation and uses thereof” (Princeton University, priority 1999, dated 2000)
